According to the NIST ThermoML archive (doi:10.1021/je900124n):
Where “and” joins values, the source holds several entries; their conditions need not be identical. Identical values can stand only once.

Conditions: Fluid (supercritical or subcritical phases), Buoyancy - hydrostatic balance with magnetic suspension - two sinkers

CCC [propane]
Conditions	mass density
360 K, 5948.1 kPa	392.145 kg/m3
360 K, 5948.8 kPa	392.137 kg/m3
360 K, 5949.1 kPa	392.137 kg/m3
360 K, 5949.4 kPa	392.137 kg/m3 and 392.14 kg/m3 and 392.139 kg/m3
360 K, 5949.5 kPa	392.138 kg/m3
360 K, 5949.7 kPa	392.139 kg/m3
360 K, 7930.9 kPa	409.823 kg/m3
360 K, 7931 kPa	409.821 kg/m3
360 K, 7931.2 kPa	409.824 kg/m3
360 K, 7931.3 kPa	409.824 kg/m3
360 K, 11923 kPa	433.101 kg/m3 [middle of 5 runs]
360 K, 15761 kPa	448.822 kg/m3 and 448.82 kg/m3 and 448.823 kg/m3
360 K, 15762 kPa	448.821 kg/m3 and 448.822 kg/m3
360 K, 16074 kPa	449.912 kg/m3
360 K, 16075 kPa	449.912 kg/m3 and 449.911 kg/m3
360 K, 19910 kPa	462.101 kg/m3 and 462.102 kg/m3
360 K, 23890 kPa	472.673 kg/m3 and 472.674 kg/m3 and 472.672 kg/m3
360 K, 23891 kPa	472.674 kg/m3
360 K, 30126 kPa	486.462 kg/m3
360 K, 30127 kPa	486.462 kg/m3
360 K, 35259 kPa	496.072 kg/m3
360 K, 35260 kPa	496.073 kg/m3 and 496.072 kg/m3
360 K, 35262 kPa	496.074 kg/m3
360.01 K, 901.24 kPa	14.4833 kg/m3
360.01 K, 3108.3 kPa	73.4355 kg/m3
365 K, 3675.6 kPa	100.804 kg/m3 and 100.799 kg/m3 and 100.803 kg/m3
365 K, 3675.7 kPa	100.805 kg/m3
365 K, 4200.9 kPa	337.532 kg/m3 and 337.539 kg/m3 and 337.537 kg/m3
365 K, 4201.1 kPa	337.536 kg/m3
365 K, 4201.2 kPa	337.534 kg/m3
365 K, 4201.3 kPa	337.537 kg/m3 and 337.54 kg/m3
365 K, 4201.5 kPa	337.541 kg/m3
369 K, 4143.7 kPa	146.446 kg/m3 [middle of 6 runs]
369 K, 4143.8 kPa	146.438 kg/m3 and 146.437 kg/m3
369 K, 4197.8 kPa	281.2 kg/m3 and 281.206 kg/m3
369 K, 4197.9 kPa	281.145 kg/m3
369 K, 4198 kPa	281.222 kg/m3 [middle of 4 runs]
369 K, 4198.1 kPa	281.241 kg/m3
369.82 K, 4245.5 kPa	199.588 kg/m3 and 199.89 kg/m3 and 199.647 kg/m3
369.82 K, 4245.6 kPa	199.834 kg/m3
369.82 K, 4246.6 kPa	245.595 kg/m3
369.82 K, 4985.6 kPa	337.371 kg/m3
369.82 K, 19374 kPa	448.259 kg/m3
369.82 K, 19375 kPa	448.259 kg/m3 [middle of 7 runs]
369.83 K, 3309.2 kPa	73.3627 kg/m3
369.83 K, 3309.3 kPa	73.3633 kg/m3 and 73.3643 kg/m3 and 73.3637 kg/m3
369.83 K, 3309.4 kPa	73.3693 kg/m3 [middle of 4 runs]
369.83 K, 4186.1 kPa	146.569 kg/m3
369.83 K, 4186.2 kPa	146.57 kg/m3 [middle of 6 runs]
369.83 K, 4186.3 kPa	146.572 kg/m3
369.83 K, 4245.5 kPa	199.889 kg/m3
369.83 K, 4245.6 kPa	200.17 kg/m3 and 199.849 kg/m3 and 199.989 kg/m3
369.83 K, 4246.6 kPa	245.029 kg/m3 and 245.142 kg/m3
369.83 K, 4246.7 kPa	245.511 kg/m3 and 245.436 kg/m3
369.83 K, 4246.8 kPa	245.25 kg/m3 and 245.225 kg/m3
369.83 K, 4246.9 kPa	245.368 kg/m3
369.83 K, 4284.4 kPa	281.216 kg/m3
369.83 K, 4284.5 kPa	281.229 kg/m3 and 281.217 kg/m3
